Experimental data as given in publication PMC12810539, “EGFR-targeted gadolinium contrast agents for enhanced molecular magnetic resonance imaging of tumors” (The Journal of Biological Chemistry, 2025).

System: MDA-MB-231 and U138 MG cells
Experiment: Laser scanning confocal fluorescence microscopy of cellular uptake
Type: cell-based, human
Settings: for Cy5.5 fluorescence intensity in MDA-MB-231 cells versus U138MG cells: 0.3 μM Cy5.5 equivalent, 1 h, 37 °C, confocal microscopy; for effect of C225 preincubation on cellular fluorescence: C225 preincubation 12 h, then agent for 1 h, MDA-MB-231 and U138 MG cells
Protocol: To investigate the intracellular distribution of EBP-Gd-DO3A in cells with different levels of EGFR expression, MDA-MB-231 and U138 MG cells were seeded on glass coverslips in 24-well plates (5 × 10^4 cells per well). After 24 h, the cells were washed twice with serum-free medium, treated with 0.3 μM Cy5.5 or Cy5.5-EBP-Gd-DO3A (concentration of equivalent Cy5.5), and incubated at 37 °C for 1 h. Following incubation, cells were washed three times with PBS (pH 7.4) to remove unbound probes and were stained with 4′,6-diamidino-2-phenylindole (DAPI) (Sigma-Aldrich) for 10 min and examined with a laser scanning confocal fluorescence microscope (Leica, TCS SP8) with a 40 × objective lens. The fluorescence signals from Cy5.5 and its conjugates were visualized at λex = 680 nm and λem = 710 nm, while the fluorescence signals of DAPI (nucleus) were performed at λex = 350 nm and λem = 460 nm. The laser power, illumination intensity, and exposure time were kept identical across all samples to ensure quantitative comparability. To further characterize the selective cellular uptake of the conjugate via the EGFR-mediated pathway, the cells were preincubated with C225 for 12 h at 37 °C before probe treatment. Following the removal of the pretreatment solution, the cells were washed with serum-free medium, treated with Cy5.5 or Cy5.5-EBP-Gd-DO3A conjugate, and incubated at 37 °C as described above. The cells were stained with DAPI and visualized using the laser scanning confocal fluorescence microscope, and the fluorescent intensity of the cells was analyzed using Image J.

Substance: CMYIEALDKYAC [Cy5.5-EBP-Gd-DO3A, Cy5.5-labelled EBP-Gd-DO3A conjugate for fluorescence microscopy]
- Cy5.5 fluorescence intensity in MDA-MB-231 cells versus U138MG cells: much stronger
- effect of C225 preincubation on cellular fluorescence: inhibited

Substance: Cy5.5 [reference compound]
- Cy5.5 fluorescence intensity in MDA-MB-231 cells versus U138MG cells: the same
- effect of C225 preincubation on cellular fluorescence: did not affect
